Measured values as given in patent publication US20260284143A1, “METHOD OF USING BIOACTIVE PEPTIDE FRACTION ISOLATED FROM CANARY SEED” (Purdue Research Foundation, priority 2023, published 2026).

What was measured:
C57BL/6J mice [1] = test: Organ and epididymal fat weight; type: in vivo; details: orlistat 40 mg/kg/day, 8 weeks, Western diet
Procedure: The total body weight gain (g/animal), daily feed intake (g/animal/day), and water consumption was monitored weekly throughout the study. The fecal collection was done per cage, separating fecal matter from bedding on a weekly basis and then stored at −80±3° C. until analysis. After the eight weeks of the study, animals were sacrificed by CO2 asphyxiation. Immediately after, blood was collected by cardiac puncture.

C57BL/6J mice [2] = test: Serum biochemical analysis (TG, HDL, LDL/VLDL, total cholesterol); type: in vivo; details: orlistat 40 mg/kg/day, 8 weeks, fasting serum
Procedure: Total serum high-density lipoprotein (HDL), low-density lipoprotein (LDL)/very low-density lipoprotein (VLDL), and total cholesterol levels were quantified with HDL, and LDL/VLDL Colorimetric/Fluorometric assay Kit (LSK314100) obtained from Lifespan Bioscience (Seattle, […], USA). The assays were carried out following the manufacturer's instructions, and the absorbance was measured using Multiskan™ FC Microplate Photometer (Waltham, MA, USA). In addition, serum triglyceride (TG) levels were measured using a triglyceride colorimetric kit (LSK302200) purchased from Lifespan Bioscience (Seattle, DC, USA).

C57BL/6J mice [3] = test: Fasting serum levels of metabolic hormones (ELISA); type: in vivo; details: orlistat 40 mg/kg/day, 8 weeks
Procedure: Mouse serum was analyzed to quantify total serum ghrelin using a mouse enzyme-linked immunosorbent assay (ELISA) ghrelin kit (EIAM-GHR-1) obtained from Raybiotech (Norcross, GA, USA), serum leptin by mouse leptin Duoset ELISA kit (DY49805) obtained from R&D Systems (Minneapolis, MN, USA), serum adiponectin and insulin by commercial mouse ELISA kits (KMP0041 and EMINS) obtained from Thermo Fisher Scientific (Waltham, MA, USA). All assays were carried out following the manufacturer's instructions. Finally, the absorbances were quantified at 450 nm and turbidity corrections at 590 nm using Multiskan™ FC Microplate Photometer (Waltham, MA, USA).

[4] = biological target: T1, pancreatic lipase type-VI (Sus scrofa, UniProt P00591); test: Pancreatic lipase inhibition and jump dilution (residence time); type: biochemical
T1 sequence (P00591 1-450): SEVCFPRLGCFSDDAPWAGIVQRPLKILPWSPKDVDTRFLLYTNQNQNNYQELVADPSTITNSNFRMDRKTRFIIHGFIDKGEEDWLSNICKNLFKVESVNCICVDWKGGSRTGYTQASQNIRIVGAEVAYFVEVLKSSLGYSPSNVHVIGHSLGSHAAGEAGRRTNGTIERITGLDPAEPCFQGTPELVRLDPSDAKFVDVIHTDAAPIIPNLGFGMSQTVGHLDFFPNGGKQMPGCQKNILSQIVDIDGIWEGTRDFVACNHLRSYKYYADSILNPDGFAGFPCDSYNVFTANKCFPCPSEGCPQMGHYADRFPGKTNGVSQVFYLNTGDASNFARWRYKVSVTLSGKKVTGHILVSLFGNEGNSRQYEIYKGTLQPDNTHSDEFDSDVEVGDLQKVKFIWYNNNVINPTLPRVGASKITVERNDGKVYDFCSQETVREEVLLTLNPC
Procedure: Pancreatic lipase inhibition was measured according to the procedures described in our previous study. Briefly, samples, substrate, and pancreatic lipase were dis-solved in McIlvaine buffer (0.1 M Citrate-Na2HPO4, pH 7.4). Then, 50 μL of substrate 4-methylumbelliferyl oleate (1 mM) was pre-incubated with 25 μL of peptide sample for 10 min in a black 96-well microplate. Then, 25 μL of pancreatic lipase type-VI (200 U/mL) were pipetted, and the reaction was carried out for one hour. The production of 4-methylumbelliferone was measured fluorometrically using a Fluoroskan Ascent FL Microplate Fluorometer and Luminometer, ThermoFisher Scientific (Waltham, MA, USA) using an excitation wavelength of 355 nm and emission wavelength of 460 nm. The positive control (no inhibitor) used the buffer instead of the sample, and buffer was used instead of pancreatic lipase solution for negative control (no pancreatic lipase activity). Finally, a jump dilution experiment was carried out, as previously reported by Kumar and Lowery. Briefly, enzyme-inhibitor complexes were formed by pre-incubating the substrate, pancreatic lipase (6000 U/mL), and inhibitors (10×IC50) for three hours. […] Finally, the residence time was calculated by measuring tau determined as the reciprocal of koff after fitting the enzyme progress curves to Equation (1).

pancreatic lipase = details: peptides identified from fractionated canary seed proteins; cited from earlier work

CCCCCCCCCCC[C@@H](C[C@@H]1OC(=O)[C@H]1CCCCCC)OC(=O)[C@H](CC(C)C)NC=O [orlistat]
Kidney weight (C57BL/6J mice [1]): 402.08 ± 7.43 a mg
serum TG concentration vs WD (C57BL/6J mice [2]): effective in lowering
serum total cholesterol vs WD (C57BL/6J mice [2]): no difference
serum ghrelin concentration (C57BL/6J mice [3]): increased
reversibility of pancreatic lipase inhibition ([4]; 30-fold jump dilution): slow reversibility
inhibition of pancreatic lipase (PL) in pre-formed complexes ([4]; inhibitor 10×IC50, monitored for three hours): Complete inhibition

TVGPR
inhibitory activity towards pancreatic lipase (pancreatic lipase): high inhibitory activity

VPPR
inhibitory activity towards pancreatic lipase (pancreatic lipase): high inhibitory activity

LADR
inhibitory activity towards pancreatic lipase (pancreatic lipase): high inhibitory activity

LSPR
inhibitory activity towards pancreatic lipase (pancreatic lipase): high inhibitory activity
